Consider 27 compounds from US10266526B2, “Substituted 1,2,3-triazoles as SMYD inhibitors for treating cancer” (EPIZYME, INC., priority 2014, dated 2019).

A value given as a limit tells only on which side of the number the result lay.

The first experiment deals with SMYD2 (Homo sapiens (Human), UniProt Q9NRG4). The experiment in a line: SMYD2 biochemical assay (SMYD2 enzyme assay on peptide substrate, 3H-SAM Flashplate). To be noted: SMYD2 Biochem IC50, IC50 values are an average of n = 1 to n = 50.
Sequence of SMYD2 (Q9NRG4 whole entry): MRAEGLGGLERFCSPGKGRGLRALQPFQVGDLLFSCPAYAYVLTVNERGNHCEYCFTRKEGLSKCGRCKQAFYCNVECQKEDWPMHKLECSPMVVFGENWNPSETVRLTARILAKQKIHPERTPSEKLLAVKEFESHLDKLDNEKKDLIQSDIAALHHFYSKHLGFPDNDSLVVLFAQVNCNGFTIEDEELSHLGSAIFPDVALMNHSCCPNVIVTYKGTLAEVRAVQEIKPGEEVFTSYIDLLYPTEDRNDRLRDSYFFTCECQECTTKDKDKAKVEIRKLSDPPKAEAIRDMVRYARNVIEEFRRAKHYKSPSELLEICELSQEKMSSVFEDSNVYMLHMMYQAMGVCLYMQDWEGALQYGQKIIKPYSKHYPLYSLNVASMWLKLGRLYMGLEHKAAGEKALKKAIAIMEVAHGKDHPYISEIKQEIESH
For `C[C@H](c1ccc(OCc2ccccc2)cc1)N1CC(NC(=O)c2cn(C3CC3)nn2)C1` (single isomer, unassigned) [compound 788], the IC50 (usually the point on the concentration scale where inhibition reaches its midpoint) was found to be 414 nM.

The same experiment, now with this note: read-out: SMYD2 Biochem IC50; IC50 values are an average of n = 1 to n = 50.
For the compound `COCCCN1CC(NC(=O)c2cn(C3CC3)nn2)C1` [compound 686, 1-cyclopropyl-N-[1-(3-methoxypropyl)azetidin-3-yl]-1H-1,2,3-triazole-4-carboxamide], the IC50 was determined as 3760 nM.
For the compound `O=C(NC1CN(Cc2ccc(OCc3cccnc3)cc2)C1)c1cn(C2CC2)nn1` [compound 972, 1-cyclopropyl-N-(1-(4-(pyridin-3-ylmemoxy)benzyl)azetidin-3-yl)-1H-1,2,3-triazole-4-carboxamide], the IC50 came to 1300 nM.
For `CN1CC(NC(=O)c2cn(C3CC3)nn2)C1` [compound 659, 1-cyclopropyl-N-(1-methylazetidin-3-yl)-1H-1,2,3-triazole-4-carboxamide], the IC50 worked out at 2840 nM.
Same read-out and setting: the figure for `CC(c1ccc(OCCN(C)C)cc1)N1CC(NC(=O)c2cn(C3CC3)nn2)C1` (stereo not drawn) [compound 857, 1-cyclopropyl-N-[1-(1-{4-[2-(dimethylamino)ethoxy]phenyl}ethyl)azetidin-3-yl]-1H-1,2,3-triazole-4-carboxamide] is 1980 nM; for `CC(c1ccc(OCc2ccccc2)cc1Cl)N1CC(NC(=O)c2cn(C3CC3)nn2)C1` (stereo not drawn) [compound 817, N-(1-{1-[4-(benzyloxy)-2-chlorophenyl]ethyl}azetidin-3-yl)-1-cyclopropyl-1H-1,2,3-triazole-4-carboxamide] it is 102 nM; for `O=C(NC1CN(Cc2cnn(Cc3ccccc3)c2)C1)c1cc(C2CC2)on1` [compound 955, N-(1-((1-benzyl-1H-pyrazol-4-yl)methyl)azetidin-3-yl)-5-cyclopropylisoxazole-3-carboxamide] it is 73 nM.
In the case of `COCCOc1ccc(CN2CC(NC(=O)c3cn(C4CC4)nn3)C2)cc1` [compound 830, 1-cyclopropyl-N-(1-{[4-(2-methoxyethoxy)phenyl]methyl}azetidin-3-yl)-1H-1,2,3-triazole-4-carboxamide], the IC50 stood at 2070 nM.
On to `O=C(NC1CN(C(CO)c2ccc(F)cc2)C1)c1cn(C2CC2)nn1` (stereo not drawn) [compound 813, 1-cyclopropyl-N-{1-[1-(4-fluorophenyl)-2-hydroxyethyl]azetidin-3-yl}-1H-1,2,3-triazole-4-carboxamide], for which the IC50 turned out to be 15200 nM.
With `O=C(NC1CN(CC2COC2)C1)c1cn(C2CC2)nn1` [compound 666, 1-cyclopropyl-N-[1-(oxetan-3-ylmethyl)azetidin-3-yl]-1H-1,2,3-triazole-4-carboxamide], the half-maximal inhibitory concentration (IC50) stood at 6060 nM.
For the compound `CC(c1cccc(OCc2ccccc2)c1)N1CC(NC(=O)c2cn(C3CC3)nn2)C1` (stereo not drawn) [compound 737, N-(1-{1-[3-(benzyloxy)phenyl]ethyl}azetidin-3-yl)-1-cyclopropyl-1H-1,2,3-triazole-4-carboxamide], the IC50 came to 718 nM.
With `CC(c1cccc(OCCO)c1)N1CC(NC(=O)c2cn(C3CC3)nn2)C1` (stereo not drawn) [compound 704, 1-cyclopropyl-N-(1-{1-[3-(2-hydroxyethoxy)phenyl]ethyl}azetidin-3-yl)-1H-1,2,3-triazole-4-carboxamide], the IC50 is 640 nM.
On to `NCc1cccc(CN2CC(NC(=O)c3cn(C4CC4)nn3)C2)c1` [compound 754, N-(1-{[3-(aminomethyl)phenyl]methyl}azetidin-3-yl)-1-cyclopropyl-1H-1,2,3-triazole-4-carboxamide], for which the IC50 worked out at 7340 nM.
Turning to `O=C(NC1CN(Cc2cnn(Cc3ccccc3)c2)C1)c1cc(C2CC2)ccn1` [compound 966, N-(1-((1-benzyl-1H-pyrazol-4-yl)methyl)azetidin-3-yl)-4-cyclopropylpicolinamide], the IC50 turned out to be 13 nM.
In the case of `O=C(NC1CN(Cc2ccc(OCc3ccccn3)cc2)C1)c1cn(C2CC2)nn1` [compound 849, 1-cyclopropyl-N-(1-{[4-(pyridin-2-ylmethoxy)phenyl]methyl}azetidin-3-yl)-1H-1,2,3-triazole-4-carboxamide], the IC50 is 2660 nM.
In the case of `O=C(NC1CN(Cc2cnn(Cc3nccs3)c2)C1)c1cn(C2CC2)nn1` [compound 991, 1-cyclopropyl-N-(1-((1-(thiazol-2-ylmethyl)-1H-pyrazol-4-yl)methyl)azetidin-3-yl)-1H-1,2,3-triazole-4-carboxamide], the IC50 turned out to be 760 nM.
The same measure, in the same setting: the figure for `CC(c1ccc(OCC(C)(C)C)cc1)N1CC(NC(=O)c2cn(C3CC3)nn2)C1` (stereo not drawn) [compound 864, 1-cyclopropyl-N-(1-{1-[4-(2,2-dimethylpropoxy)phenyl]ethyl}azetidin-3-yl)-1H-1,2,3-triazole-4-carboxamide] is 3140 nM; for `CC(c1ccc(F)cc1)N1CC(NC(=O)c2cn(C3CC3)nn2)C1` (stereo not drawn) [compound 747, 1-cyclopropyl-N-{1-[1-(4-fluorophenyl)ethyl]azetidin-3-yl}-1H-1,2,3-triazole-4-carboxamide] it is 1920 nM.
On the same count and under the same terms, the figure for `O=C(NC1CN(Cc2cnn(Cc3ccc4scnc4c3)c2)C1)c1cn(C2CC2)nn1` [compound 936, N-(1-((1-(benzo[d]thiazol-5-ylmethyl)-1H-pyrazol-4-yl)methyl)azetidin-3-yl)-1-cyclopropyl-1H-1,2,3-triazole-4-carboxamide] is 80 nM.
As to `CC(c1ccc(OCC(F)(F)F)cc1)N1CC(NC(=O)c2cn(C3CC3)nn2)C1` (stereo not drawn) [compound 968, 1-cyclopropyl-N-(1-(1-(4-(2,2,2-trifluoroethoxy)phenyl)ethyl)azetidin-3-yl)-1H-1,2,3-triazole-4-carboxamide], the IC50 was 1700 nM.
Regarding `CC(c1ccc(OCc2ccccc2)cc1)N1CC(NC(=O)c2cn(C3CC3)nn2)C1` (stereo not drawn) [compound 692, N-(1-{1-[4-(benzyloxy)phenyl]ethyl}azetidin-3-yl)-1-cyclopropyl-1H-1,2,3-triazole-4-carboxamide], the IC50 was 172 nM.
Turning to `C[C@@H](c1cccc(OCCO)c1Cl)N1CC(NC(=O)c2cn(C3CC3)nn2)C1` (single isomer, unassigned) [compound 831], the IC50 turned out to be 57.8 nM.
On to `CC(C)N1CC(NC(=O)c2cn(CCN)nn2)C1` [compound 723, 1-(2-aminoethyl)-N-[1-(propan-2-yl)azetidin-3-yl]-1H-1,2,3-triazole-4-carboxamide], for which the IC50 was greater than 50000 nM.
As to `O=C(NC1CN(Cc2cnn(Cc3ccc(C(F)(F)F)cc3)c2)C1)c1cn(C2CC2)nn1` [compound 943, 1-cyclopropyl-N-(1-((1-(4-(trifluoromethyl)benzyl)-1H-pyrazol-4-yl)methyl)azetidin-3-yl)-1H-1,2,3-triazole-4-carboxamide], the IC50 was 14 nM.
Regarding `O=C(NC1CN(C(c2ccc(F)cc2)C2CC2)C1)c1cn(C2CC2)nn1` (stereo not drawn) [compound 786, 1-cyclopropyl-N-{1-[cyclopropyl(4-fluorophenyl)methyl]azetidin-3-yl}-1H-1,2,3-triazole-4-carboxamide], the IC50 came to 1700 nM.
For `O=C(NC1CN(Cc2ccc(OCc3ccccc3)cc2)C1)c1cc(C2CC2)ccn1` [compound 967, N-(1-(4-(benzyloxy)benzyl)azetidin-3-yl)-4-cyclopropylpicolinamide], the half-inhibitory concentration (IC50) stood at 150 nM.
The same measure, in the same setting: the same measure for `COc1cccc(O)c1C(C)N1CC(NC(=O)c2cn(C3CC3)nn2)C1` (stereo not drawn) [compound 750, 1-cyclopropyl-N-{1-[1-(2-hydroxy-6-methoxyphenyl)ethyl]azetidin-3-yl}-1H-1,2,3-triazole-4-carboxamide]: 1280 nM.
